From patent US5843437A, “A82846 antibiotics” (Eli Lilly and Company, priority 1995, dated 1998)

Columns and labels:
[1] = serum half-life after intravenous administration to rats; details: rat, in vivo
Description: The A82846 antibiotics have excellent in vitro and in vivo activity against Gram-positive pathogenic bacteria. A particularly unexpected attribute of these antibiotics is their long serum half-life.

[2] = system: Peptococcus asaccharolyticus; experiment: MIC against anaerobic bacteria, standard agar-dilution assay (Table IX); format: cell-based; details: 3 strains; Gram-positive anaerobe; 24-hour incubation
Peptococcus prevoti = experiment: as above; format: cell-based; details: 4 strains; Gram-positive anaerobe; 24-hour incubation
[3] = system: Peptostreptococcus anaerobius; experiment: as above; format: cell-based; details: 8 strains; Gram-positive anaerobe; 24-hour incubation
Propionibacterium acnes = experiment: as above; format: cell-based; details: 19 strains; Gram-positive anaerobe; 24-hour incubation
[4] = system: Bacteroides melaninogenicus; experiment: as above; format: cell-based; details: 2 strains; Gram-negative anaerobe; 24-hour incubation
Bacteroides corrodens = experiment: as above; format: cell-based; details: 1 strain; Gram-negative anaerobe; 24-hour incubation
[5] = system: experimental descending pyelonephritis infection in rats; experiment: Rat Descending Pyelonephritis Test (Table XI); format: in vivo; details: for protection in experimental descending pyelonephritis infection, compared with vancomycin: rats
Procedure: In one important aspect of their antibacterial activity, the A82846 antibiotics are useful for treating pyelonephritis. […] This test was carried out using a procedure like that described in U.S. Pat. No. 4,208,403.
^a Doses twice per day subcutaneously for 6 days

[6] = 2 mg/kg × 12, subcutaneous twice per day for 6 days
[7] = 5 mg/kg × 12, subcutaneous twice per day for 6 days
[8] = 10 mg/kg × 12, subcutaneous twice per day for 6 days

| Structure (SMILES) | serum half-life [1] | MIC [2] | MIC (Peptococcus prevoti) | MIC [3] | MIC (Propionibacterium acnes) | MIC [4] | MIC (Bacteroides corrodens) | Percent of Rats Cured [5, 6] | Percent of Rats with a 4-Log Reduction in Titer [5, 6] | Percent of Rats Cured [5, 7] | Percent of Rats with a 4-Log Reduction in Titer [5, 7] | Percent of Rats Cured [5, 8] | Percent of Rats with a 4-Log Reduction in Titer [5, 8] | protection in experimental descending pyelonephritis infection, compared with vancomycin [5] |
| --- | --- | --- | --- | --- | --- | --- | --- | --- | --- | --- | --- | --- | --- | --- |
| CN[C@H](CC(C)C)C(=O)N[C@H]1C(=O)N[C@@H](CC(N)=O)C(=O)N[C@H]2C(=O)N[C@H]3C(=O)N[C@H](C(=O)N[C@@H](C(=O)O)c4cc(O)cc(O)c4-c4cc3ccc4O)[C@H](O[C@@H]3C[C@@](C)(N)[C@H](O)[C@@H](C)O3)c3ccc(cc3)Oc3cc2cc(c3O[C@H]2O[C@@H](CO)[C@H](O)[C@@H](O)[C@@H]2O[C@H]2C[C@](C)(N)[C@@H](O)[C@H](C)O2)Oc2ccc(cc2Cl)[C@H]1O [A82846A] | 2.2 h | ≤ 0.25 µg/mL | 1 to 2 µg/mL | 0.06 to 2 µg/mL | ≤ 0.25 µg/mL | > 128 µg/mL | > 128 µg/mL | 63% | 100% | 75% | 88% | 88% | 100% | more effective than vancomycin |
| CN[C@H](CC(C)C)C(=O)N[C@H]1C(=O)N[C@@H](CC(N)=O)C(=O)N[C@H]2C(=O)N[C@H]3C(=O)N[C@H](C(=O)N[C@H](C(=O)O)c4cc(O)cc(O)c4-c4cc3ccc4O)[C@H](O[C@H]3C[C@](C)(N)[C@@H](O)[C@H](C)O3)c3ccc(c(Cl)c3)Oc3cc2cc(c3O[C@@H]2O[C@H](CO)[C@@H](O)[C@H](O)[C@H]2O[C@H]2C[C@](C)(N)[C@@H](O)[C@H](C)O2)Oc2ccc(cc2Cl)[C@H]1O [A82846B] | 2.2 h | 0.06 to 0.5 µg/mL | 1 to 4 µg/mL | 0.06 to 8 µg/mL | ≤ 0.25 µg/mL | > 128 µg/mL | > 128 µg/mL | 50% | 88% | 100% | 100% | 100% | 100% | more effective than vancomycin |
